In paper PMC4775225, “Bromodomain inhibition of the transcriptional coactivators CBP/EP300 as a therapeutic strategy to target the IRF4 network in multiple myeloma” (eLife, 2016):
Where two headings read alike, the source gives them in different places.

Columns and labels:
[1] = target: T1, full length BRD4 ZsGreen fusion protein (Homo sapiens, UniProt O60885); assay: Bromodomain chromatin release assay, BRD4 (U2OS, high content imaging); type: cell-based; settings: 2 hr, n = 2 biological replicates ± SEM, read-out: IC50 (μM), BRD4 chromatin release (EC50)
T1 construct: CBP: CBP-bromodomain/BRD9; BRD4: full length BRD4; expressed in transfected cells
Protocol: As described previously ([Huang et al., 2014]), this assay monitors the compound-dependent release and aggregation of a fusion protein consisting of a bromodomain and the fluorescent protein ZsGreen. For the BRD4 chromatin release assay, U2OS cells capable of inducibly expressing the full-length BRD4 protein in fusion with ZsG were generated using the pLVT3G/ZsGreen-BRD4/TO3G vector and maintained in blasticidin at 15 μg/ml. […] Therefore, the bromodomain (BD) of CBP was cloned into full length BRD9 (replacing the BRD9 BD) in frame with a ZsGreen fluorescent tag (ZsG). U2OS cells capable of inducibly expressing the ZsGreen-CBPBD fusion protein were generated by lentiviral delivery of the pLVT3G/BRD9-ZsG-CBPBD/TO3G vector, which contains both the inducible fusion protein and the tet transactivator. Cells were selected and maintained in the presence of 15 μg/ml blasticidin. 5000 cells/well were seeded in 384-well imaging plates in the presence of 2 μg/ml doxycycline to induce the expression of ZsG-fusion proteins. After 16 hr of incubation with doxycycline, fresh media containing serial dilution of compounds were added to the cells for 2 hr at 37°C. Cells were fixed with 4% paraformaldehyde (PFA) dissolved in PBS for 15 min at room temperature. Images of cells were acquired using ImageXpress Micro (Molecular Devices, Inc.; Sunnyvale, CA) and processed with the Transfluor Module of MetaXpress software. Average pits per cell values were obtained from four adjacent images in each well with two technical replicates for each compound concentration. Dose-response curves were generated by plotting the average pits per cell values at each dose and EC50 values were calculated by a four-parameter non-linear regression model in GraphPad Prism.

TRIM24 bromodomain = target: T2, TRIM24 bromodomain (Homo sapiens, UniProt O15164); assay: Differential scanning fluorimetry; type: binding; settings: TRIM24 4–8 μM, compound 20 μM; read-out: DTm
T2 construct: Differential scanning fluorimetry was carried out with the indicated isolated bromodomains at 4–8 μM
Protocol: (§1) Variable buffer compositions were used for the different bromodomain proteins with 12X SYPRO orange dye, 20 μM of the compounds or equivalent percentage of DMSO, and 4–8 µM of the indicated protein. […] The melting temperature (Tm) for each sample was determined using the ViiA7 software (version 1.2.2) and the ΔTm was calculated by subtracting the Tm of the control from the Tm of the compound treated sample.

BAZ1A bromodomain = target: T3, BAZ1A bromodomain (Homo sapiens, UniProt Q9NRL2); assay: Differential scanning fluorimetry; type: binding; settings: BAZ1A 4–8 μM, compound 20 μM; read-out: DTm
T3 construct: Differential scanning fluorimetry was carried out with the indicated isolated bromodomains at 4–8 μM
Protocol: as §1

GCN5 bromodomain = GCN5 bromodomain (Homo sapiens, UniProt Q92830); assay: Differential scanning fluorimetry; type: binding; settings: GCN5 4–8 μM, compound 20 μM; read-out: DTm
Protocol: as §1

BRPF3 bromodomain = target: T4, BRPF3 bromodomain (Homo sapiens, UniProt Q9ULD4); assay: Differential scanning fluorimetry; type: binding; settings: BRPF3 4–8 μM, compound 20 μM; read-out: DTm
T4 construct: Differential scanning fluorimetry was carried out with the indicated isolated bromodomains at 4–8 μM
Protocol: as §1

TAF1 BD1 BD2 = target: T5, TAF1 BD1 BD2 (Homo sapiens, UniProt P21675); assay: Differential scanning fluorimetry; type: binding; settings: TAF1 BD1 BD2 4–8 μM, compound 20 μM; read-out: DTm
T5 construct: Differential scanning fluorimetry was carried out with the indicated isolated bromodomains at 4–8 μM
Protocol: as §1

BRD7 bromodomain = target: T6, BRD7 bromodomain (Homo sapiens, UniProt Q9NPI1); assay: Differential scanning fluorimetry; type: binding; settings: BRD7 4–8 μM, compound 20 μM; read-out: DTm
T6 construct: Differential scanning fluorimetry was carried out with the indicated isolated bromodomains at 4–8 μM
Protocol: as §1

CECR2 bromodomain = target: T7, CECR2 bromodomain (Homo sapiens, UniProt Q9BXF3); assay: Differential scanning fluorimetry; type: binding; settings: CECR2 4–8 μM, compound 20 μM; read-out: DTm
T7 construct: Differential scanning fluorimetry was carried out with the indicated isolated bromodomains at 4–8 μM
Protocol: as §1

BPTF bromodomain = target: T8, BPTF bromodomain (Homo sapiens, UniProt Q12830); assay: Differential scanning fluorimetry; type: binding; settings: BPTF 4–8 μM, compound 20 μM; read-out: DTm
T8 construct: Differential scanning fluorimetry was carried out with the indicated isolated bromodomains at 4–8 μM
Protocol: as §1

BRD4 bromodomain = assay: Differential scanning fluorimetry; type: binding; settings: BRD4 4–8 μM, compound 20 μM
Protocol: as §1

BRD9 bromodomain = target: T9, BRD9 bromodomain (Homo sapiens, UniProt Q9H8M2); assay: Differential scanning fluorimetry; type: binding; settings: BRD9 4–8 μM, compound 20 μM; read-out: DTm
T9 construct: Differential scanning fluorimetry was carried out with the indicated isolated bromodomains at 4–8 μM
Protocol: as §1

ASH1L bromodomain = target: T10, ASH1L bromodomain (Homo sapiens, UniProt Q9NR48); assay: Differential scanning fluorimetry; type: binding; settings: ASH1L 4–8 μM, compound 20 μM; read-out: DTm
T10 construct: Differential scanning fluorimetry was carried out with the indicated isolated bromodomains at 4–8 μM
Protocol: as §1

PCAF bromodomain = target: T11, PCAF bromodomain (Homo sapiens, UniProt Q92831); assay: Differential scanning fluorimetry; type: binding; settings: PCAF 4–8 μM, compound 20 μM; read-out: DTm
T11 construct: Differential scanning fluorimetry was carried out with the indicated isolated bromodomains at 4–8 μM
Protocol: as §1

BAZ2B bromodomain = target: T12, BAZ2B bromodomain (Homo sapiens, UniProt Q9UIF8); assay: Differential scanning fluorimetry; type: binding; settings: BAZ2B 4–8 μM, compound 20 μM; read-out: DTm
T12 construct: Differential scanning fluorimetry was carried out with the indicated isolated bromodomains at 4–8 μM
Protocol: as §1

BRD1 bromodomain = target: T13, BRD1 bromodomain (Homo sapiens, UniProt O95696); assay: Differential scanning fluorimetry; type: binding; settings: BRD1 4–8 μM, compound 20 μM; read-out: DTm
T13 construct: Differential scanning fluorimetry was carried out with the indicated isolated bromodomains at 4–8 μM
Protocol: as §1

MYC mRNA = MYC mRNA expression, qRT-PCR; type: cell-based, human; settings: for IC50: Homo sapiens, read-out: IC50, inhibition of MYC mRNA expression; for log2FC (MYC): 2.5 μM, 6 hr, log2 fold change relative to DMSO
Protocol: (§2) Total RNA was prepared with an RNeasy Mini Kit (Qiagen, Inc.; Hilden, Germany) with on column DNAse digestion and submitted to Ocean Ridge Biosciences (Palm Beach Gardens, FL) for sequencing and mapping. The data in RPKM for each gene with compound treatment was compared to DMSO treatment, and log2 fold changes were used for further analysis. Rank ordered gene lists were used for Gene Set Enrichment Analysis ([Subramanian et al., 2005]). RNA preparation, cDNA synthesis, and qRT-PCR were performed as described ([Mertz et al., 2011]). For dose titration experiments, cells in 96 -well plates were lysed in lysis buffer (1% Triton X-100, […] pH 2.5) and used directly for cDNA synthesis and qRT-PCR. Primer sequences can be found in Supplementary file 1.

IRF4 mRNA = IRF4 mRNA expression, qRT-PCR; type: cell-based, human; settings: for IC50: Homo sapiens, read-out: IC50, inhibition of IRF4 mRNA expression; for log2FC (IRF4): 2.5 μM, 6 hr, log2 fold change relative to DMSO
Protocol: as §2

T9 sequence (Q9H8M2 136-240 limits assumed): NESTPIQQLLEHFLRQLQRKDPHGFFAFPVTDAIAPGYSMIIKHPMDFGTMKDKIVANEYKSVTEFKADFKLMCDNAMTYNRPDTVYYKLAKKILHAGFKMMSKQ
T5 sequence (P21675 1397-1628 limits assumed): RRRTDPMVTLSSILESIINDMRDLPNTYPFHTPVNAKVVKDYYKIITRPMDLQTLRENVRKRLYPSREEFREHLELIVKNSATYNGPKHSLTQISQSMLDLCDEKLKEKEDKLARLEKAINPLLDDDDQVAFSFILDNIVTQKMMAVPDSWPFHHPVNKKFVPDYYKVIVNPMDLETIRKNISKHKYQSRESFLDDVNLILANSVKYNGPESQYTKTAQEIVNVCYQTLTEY
T3 sequence (Q9NRL2 1430-1533 limits assumed): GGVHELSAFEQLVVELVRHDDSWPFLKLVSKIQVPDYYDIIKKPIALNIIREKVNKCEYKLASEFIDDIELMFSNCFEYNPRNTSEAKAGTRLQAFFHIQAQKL
GCN5 bromodomain, sequence (Q92830 728-832 limits assumed): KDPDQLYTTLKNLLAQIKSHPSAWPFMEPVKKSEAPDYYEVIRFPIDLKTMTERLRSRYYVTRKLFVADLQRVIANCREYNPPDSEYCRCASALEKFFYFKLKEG
T4 sequence (Q9ULD4 589-693 limits assumed): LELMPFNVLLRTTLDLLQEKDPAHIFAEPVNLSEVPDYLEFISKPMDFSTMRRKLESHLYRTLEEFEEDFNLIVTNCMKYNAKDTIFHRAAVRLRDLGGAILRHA
T13 sequence (O95696 562-666 limits assumed): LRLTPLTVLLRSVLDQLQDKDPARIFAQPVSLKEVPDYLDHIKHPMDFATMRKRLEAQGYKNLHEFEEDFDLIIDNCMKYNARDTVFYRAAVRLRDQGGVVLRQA
T11 sequence (Q92831 723-827 limits assumed): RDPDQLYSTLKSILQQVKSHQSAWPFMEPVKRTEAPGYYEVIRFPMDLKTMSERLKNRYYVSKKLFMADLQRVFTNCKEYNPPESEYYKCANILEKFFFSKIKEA
T6 sequence (Q9NPI1 131-235 limits assumed): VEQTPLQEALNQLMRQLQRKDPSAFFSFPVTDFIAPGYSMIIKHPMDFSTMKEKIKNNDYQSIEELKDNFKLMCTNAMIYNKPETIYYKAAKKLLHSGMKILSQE
T12 sequence (Q9UIF8 2060-2164 limits assumed): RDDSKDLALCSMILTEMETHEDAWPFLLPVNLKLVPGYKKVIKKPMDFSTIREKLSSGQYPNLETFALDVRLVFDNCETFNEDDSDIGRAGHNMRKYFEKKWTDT
T7 sequence (Q9BXF3 434-538 limits assumed): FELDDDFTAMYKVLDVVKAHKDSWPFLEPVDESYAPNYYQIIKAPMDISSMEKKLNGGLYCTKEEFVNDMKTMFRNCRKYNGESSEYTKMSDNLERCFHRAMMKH
T2 sequence (O15164 899-1004 limits assumed): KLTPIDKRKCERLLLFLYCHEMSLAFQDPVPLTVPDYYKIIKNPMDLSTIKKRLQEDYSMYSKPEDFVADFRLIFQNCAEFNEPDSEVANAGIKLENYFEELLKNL

| Compound | EC50 [1] | ΔTm at 20 µM (TRIM24 bromodomain) | ΔTm at 20 µM (BAZ1A bromodomain) | ΔTm at 20 µM (GCN5 bromodomain) | ΔTm at 20 µM (BRPF3 bromodomain) | ΔTm at 20 µM (TAF1 BD1 BD2) | ΔTm at 20 µM (BRD7 bromodomain) | ΔTm at 20 µM (CECR2 bromodomain) | ΔTm at 20 µM (BPTF bromodomain) | DTm (BRD4 bromodomain) | ΔTm at 20 µM (BRD9 bromodomain) | ΔTm at 20 µM (ASH1L bromodomain) | ΔTm at 20 µM (PCAF bromodomain) | ΔTm at 20 µM (BAZ2B bromodomain) | ΔTm at 20 µM (BRD1 bromodomain) | IC50 (MYC mRNA; OPM-2, OPM2, 6 hr) | IC50 (MYC mRNA; LP-1, 6 hr) | IC50 (IRF4 mRNA; OPM-2, OPM2, 6 hr) | IC50 (IRF4 mRNA; LP-1, 6 hr) | also measured |
| --- | --- | --- | --- | --- | --- | --- | --- | --- | --- | --- | --- | --- | --- | --- | --- | --- | --- | --- | --- | --- |
| CCC(=O)N1CCOc2c(cc(-c3ccc(OC)c(OC)c3)cc2OC[C@H]2CCCN(C)C2)C1 [I-CBP112] | > 20 µM | 0.32 °C | 0.41 °C | 0.14 °C | 0.75 °C | 0.12 °C | 0.44 °C | 1.46 °C | 0.93 °C | 2.12 °C | 0.37 °C | 0.04 °C | -0.08 °C | 0.28 °C | -0.44 °C | 6100 nM | 11300 nM | 2900 nM | 2000 nM | – |
| COc1ccc(CCc2nc3cc(-c4c(C)noc4C)ccc3n2C[C@H](C)N2CCOCC2)cc1Cl [SGC-CBP30] | 18.7 ± 1.2 µM | 0.43 °C | 0.18 °C | -0.09 °C | -0.18 °C | 0.12 °C | 0.5 °C | 0.76 °C | 0.69 °C | 2.01 °C | 0.37 °C | 0.04 °C | -0.08 °C | -0.06 °C | 0.26 °C | 2300 nM | 2500 nM | 1100 nM | 860 nM | log2FC (MYC) (MYC mRNA; AMO1): -1.13; log2FC (MYC) (MYC mRNA; H929): -1.24; log2FC (MYC) (MYC mRNA; KMM1): -0.48; log2FC (MYC) (MYC mRNA; KMS28BM): -0.63; log2FC (MYC) (MYC mRNA; LP1): -1.07; log2FC (MYC) (MYC mRNA; MOLP8): -0.64; log2FC (MYC) (MYC mRNA; OPM2): -0.71; log2FC (MYC) (MYC mRNA; RPMI8226): -0.49; log2FC (MYC) (MYC mRNA; RS411): -0.56; log2FC (IRF4) (IRF4 mRNA; AMO1): -1.36; log2FC (IRF4) (IRF4 mRNA; H929): -0.75; log2FC (IRF4) (IRF4 mRNA; KMM1): -0.53; log2FC (IRF4) (IRF4 mRNA; KMS28BM): -0.93; log2FC (IRF4) (IRF4 mRNA; LP1): -1.23; time to suppression of IRF4 after addition of compound (IRF4 mRNA; LP-1, 2.5 μM): ≤ 2 h; log2FC (IRF4) (IRF4 mRNA; MOLP8): -1.29; log2FC (IRF4) (IRF4 mRNA; OPM2): -0.98; log2FC (IRF4) (IRF4 mRNA; RPMI8226): -0.55; log2FC (IRF4) (IRF4 mRNA; RS411): -0.31 |
